The results in this text go back to US20200399329A1, “ANTIMICROBIAL PEPTIDES” (priority 2015, published 2020).

Structures are written as SMILES. Where a SMILES comes first, the peptide text is derived from it.

The series in a line: Preliminary IP safety in mice. In kind it is in vivo. The method, then: IP administration of OMN6: OMN6 was administered IP to mice in order to evaluate and quantitate any toxic effects if present. OMN6 peptide was administered via intraperitoneal injection according to concentrations and groups detailed in Table 10.
Mice used in this experiment: Outbred Hsd: ICR (CD-1®)—weight 18-20 g. Saline solution (0.9% NaCl) supplemented with 4 mM C2H3NaO2 (sodium acetate) as sham treatment, or OMN6 dissolved in saline were administered as specified in […] A total volume of 100 μl was administered to each animal.
Mortality of mice in experiment group was monitored in comparison to a Sham (CTRL) group. Food and water consumption, post treatment, was monitored by individual weight measurements once every two days. At the end of the experiment, blood was taken from all animals, and a 200 μl volume of complete blood was separated and plasma was analyzed for erythrocyte hemolysis.
Experimental Map: • 1. Mice (six per group) were given a single-dose administration on day 1, according to group specification (Table 10). Food and water consumption (weight analysis) along with mortality of mice in all groups were monitored for 3 days post treatment. At the end of the four day trial, the animals were sacrificed. • 2. Free Hgb (hemoglobin) assay was performed on day 4, on all samples from all groups, for erythrocyte hemolysis analysis. • 3. Water/food availability, temperature and other conditions remained unchanged between the groups for the entire four day trial. • 4. The Erythrocyte hemolysis analysis was performed via hemoglobin assay kit (Sigma-Aldrich, 3 Plaut St. Rehovot, Israel).

The mark [1] stands for this setting: IP single dose 16 mg/kg, four-day experiment.

Consider `CC[C@H](C)[C@H](NC(=O)CNC(=O)[C@H](CC(=O)O)NC(=O)[C@H](CCCNC(=N)N)NC(=O)[C@@H](NC(=O)[C@H](CC(N)=O)NC(=O)[C@H](CCC(N)=O)NC(=O)CNC(=O)[C@@H](NC(=O)[C@H](CCCCN)NC(=O)[C@H](CCC(=O)O)NC(=O)[C@@H](NC(=O)[C@H](CCCCN)NC(=O)[C@H](CCCCN)NC(=O)[C@H](Cc1ccccc1)NC(=O)[C@H](CC(C)C)NC(=O)[C@H](CCCCN)NC(=O)[C@H](Cc1c[nH]c2ccccc12)NC(=O)[C@H](CCCCN)NC(=O)[C@H](CS)NC(=O)[C@@H](N)CCSC)[C@@H](C)CC)C(C)C)[C@@H](C)CC)C(=O)N[C@H](C(=O)N[C@@H](CCCCN)C(=O)N[C@@H](C)C(=O)NCC(=O)N1CCC[C@H]1C(=O)N[C@@H](C)C(=O)N[C@H](C(=O)N[C@@H](C)C(=O)N[C@H](C(=O)N[C@H](C(=O)NCC(=O)N[C@@H](CCC(N)=O)C(=O)N[C@@H](C)C(=O)N[C@H](C(=O)N[C@@H](CCC(N)=O)C(=O)N[C@H](C(=O)N[C@@H](C)C(=O)N[C@@H](CCCCN)C(=O)N[C@@H](CS)C(N)=O)[C@@H](C)CC)[C@@H](C)O)C(C)C)C(C)C)C(C)C)[C@@H](C)CC` [OMN6] (H-MCKWKLFKKIEKVGQNIRDGIIKAGPAVAVVGQATQIAKC-NH2; N-terminus and C-terminus assumed), for which, under “IP single dose 16 mg/kg (data not shown)”, the Histological analysis entry is recorded as “No evidence of pathological changes or aberrations”. Also, under “IP single dose 16 mg/kg, day 4”, the “Hemolysis of erythrocytes (Free Hgb assay)” value is reported as “No evidence of hemolysis”. Besides, under setting [1], the “Clinical signs (diarrhea, bloody diarrhea, stand-on-end hair, apathy or restlessness)” value is recorded as “not observed”; the Mortality result is “not observed”; the “Toxic or otherwise adverse effects” value was “does not exert any toxic or otherwise adverse effects”; the Weight-loss result is “not observed”.
